Experimental data: patent US11596591B2, “Manufacturing method for cosmetic composition of fucoidan and cosmetic composition comprising low molecular weight fucoidan using the same” (priority 2021, dated 2023)

Tested on: mushroom tyrosinase
Assay: in-vitro tyrosinase inhibition assay (substrate L-tyrosine)
Assay type: biochemical
Details: 200 μM, positive control
Text: An in-vitro tyrosinase inhibition assay was used to determine whether the whitening ingredients were directly affecting the regulation of the tyrosinase activity (using tyrosine as a substrate). The ingredients with a whitening effect mainly have a mechanism of action that inhibits some processes in the melanin biosynthetic pathway in vivo, which is the initial process in which tyrosinase is involved in the most important process in the synthetic pathway. Most of the whitening ingredients inhibit the activity of tyrosinase and reduce the production of melanin in the skin, resulting in offering a skin whitening effect. […] (1) Test method: For an in-vitro tyrosinase inhibition test of the test substance, mozuku-derived fucoidan extract, the tyrosinase inhibitory ability was measured using an in-vitro tyrosinase inhibition assay. […] The tyrosinase inhibitory effect of the test substance was evaluated by measuring the absorbance of DOPAchrome produced from the substrate L-tyrosine by the enzymatic reaction of tyrosinase. […] A microplate reader system (SpectraMax® i3x Multi Mode Detection Platform Molecular Devices, USA) was used to measure the absorbance at 475 nm. […] As determined by the Student's t test, P<0.05 was considered statistically significant. The in-vitro tyrosinase inhibition activity against the substrate L-tyrosine was calculated according to the following equation: […] […]

tyrosinase inhibition activity against L-tyrosine with respect to the negative control: 50.47±0.95%
SMILES: OC[C@H]1O[C@@H](Oc2ccc(O)cc2)[C@H](O)[C@@H](O)[C@@H]1O [arbutin]
